Measured values as given in patent EP0497303B1, “Carbamic acid derivatives and method for preparing the same” (KYORIN PHARMACEUTICAL CO., LTD., priority 1991, dated 1992).

Tested on: amnesia induced by exposure to carbon dioxide gas
Assay: Action against amnesia induced by exposure to carbon dioxide gas (step-through passive avoidance)
Format: in vivo, Std: ddy strain male mice
Details: for Reaction latency(sec) Mean±S.E: orally immediately after exposure to carbon dioxide gas and one hour before retention trial, retention trial after 24 hours, maximum 300 seconds; for Rate of improvement (%): orally, relative to CO2 treated and non-treated groups
Text: The apparatus used was a passive avoidance apparatus of a step-through type (made by O'Hara Co., Ltd.). In the aquisition trial, each mouse was placed in the light compartment, a guillotine door of partition thereof was opened after 10 seconds, the guillotine door was closed as soon as the mouse moved into the dark compartment and an electric shock of 33 - 50 v was given for 1 second through the metal grid bars of the floor. Immediately after the electric shock was given, the mouse was taken out and was accommodated in a container having volume of ca. 300 ml filled with carbon dioxide gas. After immediately exposed to carbon dioxide gas having flow rate of ca. 5 liter/min. for 25 - 45 seconds, the mouse was taken out and was reanimated by artificial breathing. The retention trial was carried out after 24 hours. In the retention trial, the mouse was again placed in the light compartment, the time till the movement to the dark compartment was measured as a reaction latency until maximum 300 seconds and the mouse showing latency beyond it was deemed as 300 seconds. In addition, immediately after aquisition trial, a group not to exposed to carbon dioxide gas (comparison group of non-amnesia) was also made. The mouse was grouped per 10 - 30, the subject medicament was orally administered immediately after exposed to carbon dioxide gas and one hour before the retention trial. Rate of improvement =(Latency of CO2 -drug treated group - Latency of carbon dioxide exposed group)/(Latency of non-dementia group - Latency of carbon dioxide exposed group)x 100 [formula]

With `CN1CCCC(OC(=O)Nc2ccccc2)C1` (centres unmarked) [Compound A, 3-(1-methylpiperidinyl) phenylcarbamate] the “Reaction latency(sec) Mean±S.E” value (Dose 100 mg/kg) was 175.3 ± 36.7 s and the “Rate of improvement (%)” value (Dose 100 mg/kg) was 15.2%.
With `O=C(Nc1ccc(Cl)cc1)OC1CCN(c2ccncc2)CC1` [Example 2] the “Reaction latency(sec) Mean±S.E” value (Dose 10 mg/kg) was 150.7 ± 27.1 s, the “Rate of improvement (%)” value (Dose 10 mg/kg) was 42.9% and the “Reaction latency(sec) Mean±S.E” value (Dose 30 mg/kg) was 231.2 ± 19.0 s. For the same compound, the “Rate of improvement (%)” value (Dose 30 mg/kg) was 76.8%.
In the case of `COC(=O)C1=C(C)NC(C)=C(C(=O)OCCN(C)Cc2ccccc2)C1c1cccc([N+](=O)[O-])c1` (centres unmarked) [Nicardipine], the “Reaction latency(sec) Mean±S.E” value (Dose 5 mg/kg) was 92.9 ± 28.1 s and the “Rate of improvement (%)” value (Dose 5 mg/kg) was -59.8%.
`O=C(Nc1ccc(Cl)cc1)OC1CCCN(c2ccncc2)C1` (centres unmarked) [Example 49] was tested, and the “Reaction latency(sec) Mean±S.E” value (Dose 10 mg/kg) was 154.0 ± 27.2 s, the “Reaction latency(sec) Mean±S.E” value (Dose 30 mg/kg) was 183.7 ± 26.3 s and the “Rate of improvement (%)” value (Dose 30 mg/kg) was 45.3%.
In the case of `C1=Cc2cccc(OCC3CNCCO3)c2C1` (centres unmarked) [Indeloxazine], the “Reaction latency(sec) Mean±S.E” value (Dose 40 mg/kg) was 219.3 ± 17.8 s, the “Rate of improvement (%)” value (Dose 40 mg/kg) was 30.1% and the “improving activity to disturbance of memory” value (summary in words of Table 1) was “vitiated or not enough”.
